Data on one molecule can be found in US20260263552A1, “PHARMACEUTICAL COMPOSITIONS FOR IMPROVING ORAL BIOAVAILABILITY” (priority 2023, published 2026).

The nature of data set [1]: Dog pK study (Example 4), 20 mg dose. The conditions noted are these: in vivo, iv, 10 mg. On the set-up: species or system dogs.
Data set [2] in a line: Dog pK study (Example 5E), effect of sodium decanoate amount and number of tablets, 100 mg dose. On the set-up: species or system dogs. The following applies: in vivo, iv, 10 mg. The procedure: Blood samples were withdrawn over a period of 72 hours. […] Error bars describe standard deviation. […] Decreasing the amount of sodium decanoate decreased PK exposure at 330 mg of sodium decanoate. […] Table 12 summarizes all of the PK data for all the formulations tested in Example 5.

The nature of data set [3]: Oral absorption / pharmacokinetics of Compound (I) formulations in cynomolgus monkeys. The data set is classed as in vivo. The conditions noted are these: cyno monkeys. The procedure: An aqueous suspension of […] was prepared at 10% solid content. […] Six enteric coated tablets were encapsulated in a size #00 hard gelatin capsule for the cyno PK study. Each cyno monkey was dosed with 2 capsules (12 enteric coated tablets). […] The mean exposure is shown in FIG. 1 with error bars showing the standard deviation.

The mark [4] stands for this setting: 0.1 mg/kg IV (0.5 mg), reference.

SMILES strings stand for the structures.

With `CCCC[C@H]1C(=O)N(C)[C@@H](CCCC)C(=O)N[C@@H](CC(C)C)C(=O)N[C@H](C(=O)NCC(=O)N[C@@H](Cc2cn(CCOCCOCCCOCCCOCCOCCOCCOCCOCCOCCOCCOCCNC(=O)CC[C@H](NC(=O)CCCCCCCCCCCCCCCCC(=O)O)C(=O)O)nn2)C(=O)O)CSCC(=O)N[C@@H](Cc2ccc(O)cc2)C(=O)N(C)[C@@H](C)C(=O)N[C@@H](CC(N)=O)C(=O)N2CCC[C@H]2C(=O)N[C@@H](CN)C(=O)N[C@@H](CC(C)C)C(=O)N2C[C@H](O)C[C@H]2C(=O)N[C@@H](Cc2c[nH]c3ccccc23)C(=O)N[C@@H](CCN)C(=O)N[C@@H](Cc2cn(CC(=O)O)c3ccccc23)C(=O)N1C` [Compound (I)], in data set [1], the “AUCinf (ng · h/mL) Mean” value was found to be 1198.53803 µg·h/mL and the “Cmax (ng/mL) Mean” value is 25466.29 ng/mL. Further, in data set [2], the “AUCinf (ng · h/mL) Mean” value was found to be 1198.53803 µg·h/mL and the “Cmax (ng/mL) Mean” value worked out at 25466.29 ng/mL. Further, in data set [3] (0.1 mg/kg IV (0.5 mg)), the “AUC0-24 h (nM · h) Mean” value is 47.61351 µM·h, the “AUCinf (nM · h) Mean” value turned out to be 51.96595 µM·h and the concentration peaked (Cmax) at 798 nM. Moreover, in data set [3] (setting [4]), the “BA (%) Mean” value was 100.00% and the “BA (%) using AUCInf Mean” value turned out to be 100.00%. Further, the “plasma concentration of Compound (I) over time” value in data set [3] (oral, 12 mg, formulated as in Example 1, 72 hours) is given as “good plasma concentration”.
